Where “and” joins values, the source holds several entries; their conditions need not be identical. Equal entries are not always repeated. Where two headings read alike, the source gives them in different places.
Legend:
PfMDH [1] = molecular target: T1, PfMDH (Plasmodium falciparum, UniProt Q6VVP7); assay: Kinetics experiment with varying L-malate, substrate inhibition model; type: biochemical
T1 construct: The full-length WT PfMDH gene was cloned into pETM-13; made in house; host or cells: E. coli Rosetta 2 (DE3) pLysS

WT PfMDH [2] = molecular target: T2, WT PfMDH (Plasmodium falciparum, UniProt Q6VVP7); assay: Microscale thermophoresis (MST) binding to fluorescently labeled PfMDH
T2 construct: The full-length WT PfMDH gene was cloned into pETM-13; made in house; host or cells: E. coli Rosetta 2 (DE3) pLysS
Method: A Nanotemper MonolithNT.115 instrument (Nano-temper Technologies, GmbH) was used to quantify ligand/protein interactions. Purified PfMDH was labeled using the Red-NHS Monolith Protein Labeling Kit according to the manufacturer’s protocol. All reactions were performed in 100 mM Na-phosphate buffer pH 7.4, 400 mM NaCl, 0.05% Tween-20 in standard capillaries (Nanotemper Technologies GmbH). The ligand was 2× fold diluted starting from 4 mM as the highest concentration; the final protein concentration was 50 nM. All samples were incubated with compounds for about 1 h at room temperature followed by centrifugation at 18,000 rpm (Eppendorf Centrifuge 5415R) before loading into capillaries. Measurement was performed in triplicate at 40% LED intensity and 40% MST power. The Kd model was employed to determine the binding constant using the software MO.Affinity Analysis v2.3 while data collection was performed with MO.Control 2 (Nano-temper Technologies, GmbH).

V190W PfMDH = molecular target: T3, V190W PfMDH (Plasmodium falciparum, UniProt Q6VVP7, V190W); assay: STD-NMR fragment screening, dimeric mutant; type: binding; settings: 10 μM protein, 1 mM fragment
T3 construct: made in house; host or cells: E. coli (stated expressly only for the WT construct)
Method: (§1) NMR spectra were acquired on Bruker Avance III (600 MHz) spectrometer at 300 K, equipped with a triple resonance cryoprobe head and an automated SampleJet sample changer. The samples for STD experiments were prepared in 100 mM Na-phosphate pH 7.4, 400 mM NaCl and spectra were recorded in water with 1:100-fold excess of the fragment (dissolved in DMSO at 100 mM) in an additional 10% (v/v) D2O to provide a lock signal. Final protein and ligand concentrations were 10 μM and 1 mM, respectively. Selective saturation of the protein resonances (on resonance spectrum) was performed by irradiating at 0.5 ppm using a series of Eburp2.1000-shaped 90 pulses (50 ms, 1 ms delay between pulses) for a total saturation time of 2.0 s. For the reference spectrum (off-resonance), the samples were irradiated at −10 ppm. On- and off-resonance scans were subtracted using phase cycling. The fragment library screening was performed by testing 300 mixtures containing five fragments each initially. Mixtures that yielded positive STD signals were selected and deconvolved, i.e., fragments that formed “active” mixtures were tested separately. Spectra were analyzed with TopSpin® software, 4.0

PfMDH [3] = molecular target: T1, PfMDH; assay: Thermal shift assay (TSA); type: binding; settings: for TSA melting curve raw signal: triplicate columns; for TSA melting curve raw fluorescence signal: three replicate columns
Method: The TSA experiment was conducted in a BioRad CSX 96 (Biorad). Each reaction consisted of 1 mM of compound (100 mM stock in 100% (v/v) DMSO) and 10 μM PfMDH in 100 mM Na–phosphate buffer pH 7.4, 400 mM NaCl, and 10× Sypro Orange (Invitrogen) for a total volume of 100 μl. Control experiments were performed with 1% (v/v) DMSO. Inflection points were determined using BioRad CFX96™ control software. Generally, a temperature increase of over 1 °C is interpreted as a result of the stabilization of the protein-ligand interaction. On the contrary, a negative shift is considered a destabilization caused by the fragment.

WT PfMDH [4] = molecular target: T2, WT PfMDH; assay: STD-NMR fragment screening, wild type; type: binding; settings: 10 μM protein, 100-fold molar excess
Method: as §1

MDH = settings: cited from earlier work
[5] = 3 h exposure to 5 μM; cited from earlier work

T2 sequence (Q6VVP7 entry or part of it): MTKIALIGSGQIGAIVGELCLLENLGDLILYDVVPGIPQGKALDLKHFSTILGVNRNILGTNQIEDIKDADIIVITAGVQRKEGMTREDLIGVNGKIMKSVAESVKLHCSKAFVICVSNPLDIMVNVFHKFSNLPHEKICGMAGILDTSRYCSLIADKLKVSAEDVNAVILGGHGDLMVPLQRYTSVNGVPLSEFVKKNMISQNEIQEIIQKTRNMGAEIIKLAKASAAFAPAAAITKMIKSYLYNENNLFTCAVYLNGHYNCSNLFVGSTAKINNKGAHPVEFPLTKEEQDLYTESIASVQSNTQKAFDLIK
T1 sequence (Q6VVP7 entry or part of it): as above
T3 sequence (Q6VVP7 whole entry V190W, the tested form may be a part): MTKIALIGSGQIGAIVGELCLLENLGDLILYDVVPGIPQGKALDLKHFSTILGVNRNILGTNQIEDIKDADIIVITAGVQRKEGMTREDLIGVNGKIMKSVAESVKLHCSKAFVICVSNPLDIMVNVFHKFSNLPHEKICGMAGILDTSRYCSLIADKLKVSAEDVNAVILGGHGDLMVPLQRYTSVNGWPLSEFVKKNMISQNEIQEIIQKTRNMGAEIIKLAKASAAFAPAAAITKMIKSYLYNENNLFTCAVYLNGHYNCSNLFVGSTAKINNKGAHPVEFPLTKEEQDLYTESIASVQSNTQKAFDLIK

Compound: Nc1nc(-c2ccc(F)c(F)c2)cs1 [4DT, 4-(3,4-difluorophenyl) thiazol-2-amine]
- Ki (substrate inhibition constant of malate) (PfMDH [1]; in the presence of 63 μM compound, control 12.5 ± 4.2): 63000 ± 31800 µM
- Ki (substrate inhibition constant of malate) (PfMDH [1]; in the presence of 125 μM compound): 72900 ± 41900 µM
- Kd (WT PfMDH [2]; MST report, target 50 nM, 25.1°C, n 3, Kd Confidence ± 1.7444E-05, read-out: Kd (MST report)): 99 µM
- Kd (WT PfMDH [2]; MST, 50 nM labeled WT PfMDH, ligand 240 nM to 4 mM, read-out: Kd): 99 ± 1.7 µM
- STD-NMR binding (V190W PfMDH): binds to dimeric V190W PfMDH
- ΔTm at 1000 µM (PfMDH [3]; 1 mM compound vs DMSO control): -2 ± 0.17 °C
- Tm (PfMDH [3]; 1 mM compound, 10 μM PfMDH, DMSO control Tm 58): 56 ± 0.17 °C
- TSA melting curve raw signal (PfMDH [3]; Temperature 25): 3306.061 and 3342.86 and 3324.801
- TSA melting curve raw signal (PfMDH [3]; Temperature 28.5): 3333.659 and 3382.548 and 3355.546
- TSA melting curve raw signal (PfMDH [3]; Temperature 29): 3336.65 and 3387.196 and 3360.105
- TSA melting curve raw signal (PfMDH [3]; Temperature 29.5): 3339.189 and 3391.098 and 3364.015
- TSA melting curve raw signal (PfMDH [3]; Temperature 30): 3341.416 and 3393.698 and 3368
- TSA melting curve raw signal (PfMDH [3]; Temperature 30.5): 3342.684 and 3395.106 and 3371.797
- TSA melting curve raw signal (PfMDH [3]; Temperature 31): 3343.918 and 3395.986 and 3375.352
- TSA melting curve raw signal (PfMDH [3]; Temperature 31.5): 3345.279 and 3397.252 and 3379.023
- TSA melting curve raw signal (PfMDH [3]; Temperature 32): 3347.139 and 3398.82 and 3383.605
- TSA melting curve raw signal (PfMDH [3]; Temperature 32.5): 3348.867 and 3401.838 and 3388.573
- TSA melting curve raw signal (PfMDH [3]; Temperature 33): 3351.566 and 3406.371 and 3394.323
- TSA melting curve raw signal (PfMDH [3]; Temperature 33.5): 3355.148 and 3412.286 and 3401.055
- TSA melting curve raw signal (PfMDH [3]; Temperature 34): 3359.354 and 3419.075 and 3408.698
- TSA melting curve raw signal (PfMDH [3]; Temperature 34.5): 3364.345 and 3426.84 and 3417.169
- TSA melting curve raw signal (PfMDH [3]; Temperature 35): 3370.925 and 3434.905 and 3426.749
- TSA melting curve raw signal (PfMDH [3]; Temperature 35.5): 3378.766 and 3443.449 and 3437.428
- TSA melting curve raw signal (PfMDH [3]; Temperature 36): 3388.116 and 3452.416 and 3449.193
- TSA melting curve raw signal (PfMDH [3]; Temperature 36.5): 3399.139 and 3461.927 and 3462.335
- TSA melting curve raw signal (PfMDH [3]; Temperature 37): 3411.581 and 3472.191 and 3477.03
- TSA melting curve raw signal (PfMDH [3]; Temperature 37.5): 3425.633 and 3483.607 and 3493.418
- TSA melting curve raw signal (PfMDH [3]; Temperature 38): 3441.177 and 3496.044 and 3511.6
- TSA melting curve raw signal (PfMDH [3]; Temperature 38.5): 3458.245 and 3509.831 and 3531.909
- TSA melting curve raw signal (PfMDH [3]; Temperature 39): 3477.439 and 3525.778 and 3554.709
- TSA melting curve raw signal (PfMDH [3]; Temperature 39.5): 3498.925 and 3543.752 and 3579.893
- TSA melting curve raw signal (PfMDH [3]; Temperature 40): 3522.761 and 3563.858 and 3607.657
- TSA melting curve raw signal (PfMDH [3]; Temperature 40.5): 3549.068 and 3586.405 and 3638.198
- TSA melting curve raw signal (PfMDH [3]; Temperature 41): 3578.181 and 3611.326 and 3671.73
- TSA melting curve raw signal (PfMDH [3]; Temperature 41.5): 3609.957 and 3638.555 and 3708.036
- TSA melting curve raw signal (PfMDH [3]; Temperature 42): 3645.082 and 3668.877 and 3747.413
- TSA melting curve raw signal (PfMDH [3]; Temperature 42.5): 3683.644 and 3702.365 and 3790.395
- TSA melting curve raw signal (PfMDH [3]; Temperature 43): 3726.411 and 3739.617 and 3837.462
- TSA melting curve raw signal (PfMDH [3]; Temperature 43.5): 3773.558 and 3781.332 and 3888.754
- TSA melting curve raw signal (PfMDH [3]; Temperature 44): 3825.615 and 3827.686 and 3944.903
- TSA melting curve raw signal (PfMDH [3]; Temperature 44.5): 3882.684
- TSA melting curve raw fluorescence signal (PfMDH [3]; Temperature 73.5): 7306.372 and 7609.03 and 7435.601
- TSA melting curve raw fluorescence signal (PfMDH [3]; Temperature 74): 7252.808 and 7555.848 and 7383.062
- TSA melting curve raw fluorescence signal (PfMDH [3]; Temperature 74.5): 7199.861 and 7502.703 and 7330.716
- TSA melting curve raw fluorescence signal (PfMDH [3]; Temperature 75): 7147.275 and 7449.479 and 7278.535
- TSA melting curve raw fluorescence signal (PfMDH [3]; Temperature 75.5): 7094.934 and 7396.013 and 7226.157
- TSA melting curve raw fluorescence signal (PfMDH [3]; Temperature 76): 7042.814 and 7342.543 and 7173.967
- TSA melting curve raw fluorescence signal (PfMDH [3]; Temperature 76.5): 6991.326 and 7288.895 and 7121.791
- TSA melting curve raw fluorescence signal (PfMDH [3]; Temperature 77): 6939.998 and 7235.077 and 7069.532
- TSA melting curve raw fluorescence signal (PfMDH [3]; Temperature 77.5): 6888.609 and 7181.445 and 7017.268
- TSA melting curve raw fluorescence signal (PfMDH [3]; Temperature 78): 6837.679 and 7128.499 and 6965.286
- TSA melting curve raw fluorescence signal (PfMDH [3]; Temperature 78.5): 6786.806 and 7075.655 and 6913.558
- TSA melting curve raw fluorescence signal (PfMDH [3]; Temperature 79): 6735.738 and 7023.249 and 6861.909
- TSA melting curve raw fluorescence signal (PfMDH [3]; Temperature 79.5): 6684.496 and 6971.241 and 6810.337
- TSA melting curve raw fluorescence signal (PfMDH [3]; Temperature 80): 6633.443 and 6919.222 and 6759.175
- TSA melting curve raw fluorescence signal (PfMDH [3]; Temperature 80.5): 6581.916 and 6866.533 and 6708.294
- TSA melting curve raw fluorescence signal (PfMDH [3]; Temperature 81): 6530.578 and 6813.96 and 6657.201
- TSA melting curve raw fluorescence signal (PfMDH [3]; Temperature 81.5): 6479.57 and 6761.335 and 6606.519
- TSA melting curve raw fluorescence signal (PfMDH [3]; Temperature 82): 6428.761 and 6708.745 and 6556.435
- TSA melting curve raw fluorescence signal (PfMDH [3]; Temperature 82.5): 6378.066 and 6656.727 and 6506.333
- TSA melting curve raw fluorescence signal (PfMDH [3]; Temperature 83): 6327.701 and 6605.378 and 6456.007
- TSA melting curve raw fluorescence signal (PfMDH [3]; Temperature 83.5): 6277.373 and 6554.37 and 6405.813
- TSA melting curve raw fluorescence signal (PfMDH [3]; Temperature 84): 6227.075 and 6503.782 and 6355.543
- TSA melting curve raw fluorescence signal (PfMDH [3]; Temperature 84.5): 6177.058 and 6453.083 and 6304.863
- TSA melting curve raw fluorescence signal (PfMDH [3]; Temperature 85): 6127.333 and 6402.172 and 6253.833
- TSA melting curve raw fluorescence signal (PfMDH [3]; Temperature 85.5): 6077.95 and 6351.179 and 6202.991
- TSA melting curve raw fluorescence signal (PfMDH [3]; Temperature 86): 6029.103 and 6299.937 and 6152.723
- TSA melting curve raw fluorescence signal (PfMDH [3]; Temperature 86.5): 5980.562 and 6248.441 and 6102.328
- TSA melting curve raw fluorescence signal (PfMDH [3]; Temperature 87): 5932.235 and 6197.461 and 6052.601
- TSA melting curve raw fluorescence signal (PfMDH [3]; Temperature 87.5): 5883.708 and 6146.127 and 6003.152
- TSA melting curve raw fluorescence signal (PfMDH [3]; Temperature 88): 5834.776 and 6094.257 and 5953.457
- TSA melting curve raw fluorescence signal (PfMDH [3]; Temperature 88.5): 5785.039 and 6042.085 and 5903.221
- TSA melting curve raw fluorescence signal (PfMDH [3]; Temperature 89): 5734.759 and 5989.63 and 5852.78
- TSA melting curve raw fluorescence signal (PfMDH [3]; Temperature 89.5): 5684.264 and 5936.616 and 5801.633
- TSA melting curve raw fluorescence signal (PfMDH [3]; Temperature 90): 5633.721
- STD-NMR binding (WT PfMDH [4]): could not be seen to bind

Compound: O=C1NCc2c1c1c3ccccc3[nH]c1c1[nH]c3ccccc3c21 [staurosporine aglycone]
- IC50 (MDH): 8 µM
- decrease in cell viability [5]: 80%
